The subject of data set [1] is patients who had been taking methadone. Put plainly: Example 2: conversion of methadone patients to the sublingual tablet (withdrawal, VAS pain). The format is in vivo, human. As to conditions: patients withdrawing from methadone. As for the experimental part:
[…]. These patients took an average of 9 days to convert before methadone withdrawal was completely eliminated.
Patients who had been taking 50 mg to 140 mg per day of methadone were first titrated down with Ultram (e.g., via 2 to 3 tablets of Ultram 50 mg administered every 6 hours) for four days. Following this titration period, the patients were given injections containing 0.3 mg buprenorphine and 60 mg torodol to see if further time was needed before the sublingual tablets comprising buprenorphine and flumazenil could be started without risk of precipitating withdrawal. […]. Stomach tightness, nausea, and restless legs were the most common complaints from these patients.

For data set [2] the following is noted: in vivo, cited from earlier work.
The test system of data set [3] is sedation associated with benzodiazepines (midazolam). It counts as in vivo, human. As for the experimental part:
Subjects were pretreated with about 10 mg flumazenil orally. After 30 minutes midazolam (a benzodiazepine) 0.3 mg was administered and repeated every 30 minutes until sedative effects were noticed by the subject or reported by the investigator. Oral flumazenil of about 10 mg was able to block midazolam for an average of 150 minutes.
This example study was repeated with about 30 mg flumazenil orally (2 subjects) and sublingually (3 subjects). Allowing the sublingual flumazenil treatment option was thought to avoid first pass hepatic metabolism and potentially increase Cmax (maximum [or peak] serum concentration), shorten Tmax (time at which the Cmax is observed) and is expected to increase the area under the curve for flumazenil in the serum. In this dose range study subjects were again pretreated with about 30 mg flumazenil orally or sublingually. After 30 minutes midazolam (Versed) 0.3 mg was administered and repeated every 30 minutes until sedative effects were noticed by the subject or reported by the investigator.

Data set [4] is described as follows: Tablet pilot studies of flumazenil tolerability. The settings on record: tablet formulations, compared with IV flumazenil history. It counts as in vivo, human. An excerpt:
Note, several historical physiological ideas about IV flumazenil may be much different compared to the formulations of flumazenil used in the various pharmaceutical dosage units. […] When patients are currently prescribed opiates, such patients are instructed to avoid benzodiazepines and the pharmaceutical dosage units disclosed herein may make physicians more confident that such patients will remain compliant with that instruction.

The values that follow come from patent US20160213680A1, “COMPOSITIONS AND METHODS USING FLUMAZENIL WITH OPIOID ANALGESICS FOR TREATING PAIN AND/OR ADDICTION, AND WITH DIVERSION AND/OR OVERDOSE MITIGATION” (SOTERIAN PHARMACEUTICALS, LLC, priority 2015, published 2016).

Values joined by “and” are separate entries in the source; they are usually repeats but may differ in a detail not shown here. Identical values can stand only once. “Also recorded” adds a separate entry of the source.

As for `CCOC(=O)c1ncn2c1CN(C)C(=O)c1cc(F)ccc1-2` [flumazenil, ethyl 8-fluoro-5-methyl-6-oxo-5,6-dihydro-4H-benzo[f]imidazo[1,5-a][1,4]diazepine-3-carboxylate], the “effect of flumazenil on the pain and withdrawal relieving effect of buprenorphine” value in data set [1] is “noticeably enhanced”. Moreover, the “oral and/or gastrointestinal bioavailability” value in data set [2] (po) is listed as “very low”. Besides, in data set [2], the elimination half-life was 1.4 h. For the same molecule, the “duration of blockade from Versed” value in data set [3] (about 3 mg IV flumazenil) is 60 min. In addition, the “duration of midazolam blockade / protection from sedation (average)” value in data set [3] (about 10 mg flumazenil orally, midazolam 0.3 mg every 30 minutes) worked out at 150 min. The “sedation at the 330 minute interval” value in data set [3] (about 30 mg flumazenil orally or sublingually, all subjects) was “measurable (but reduced) sedation”. For the same molecule, the “duration of midazolam blockade, individual subjects” value in data set [3] (about 30 mg flumazenil orally, the 2 subjects) is 240 min and 270 min. In data set [3] (human, in vivo, po), the “time for flumazenil to clear the serum (average)” value is “about 3 hours”. The “anxiety, panic attacks, dysphoria, disorientation” value in data set [4] is listed as “does not cause anxiety nor panic attacks; also recorded: no dysphoria nor disorientation”.
As for `Cc1ncc2n1-c1ccc(Cl)cc1C(c1ccccc1F)=NC2` [midazolam], in data set [3] (midazolam 0.3 mg IV), the “time to maximum sedation after IV midazolam dosing” value was 5 min.
